Results reported in US9938245B2 (THE TRUSTEES OF COLUMBIA UNIVERSITY IN THE CITY OF NEW YORK, priority 2014, dated 2018).
pIC50: −log10 of the molar value. “Also recorded” adds a separate entry of the source. Blank lines part the entries; values can stand above or below the compound they belong to.

How the values were obtained:
[1] = Compound half-life in liver microsomes; conditions: for half-life at 0.5 μM: mouse, liver microsomes, pH 7.4; for metabolic stability (in words): mouse liver microsomes
BJeLR = assay: Concentration-dependent growth inhibition (alamar blue), isogenic BJ cell lines; type: cell-based, human; conditions: for pIC50: Homo sapiens, BJeLR, 48 h, 2 days, alamar blue
HT1080 = assay: Concentration-dependent growth inhibition (alamar blue), HT1080; type: cell-based, human; conditions: Homo sapiens, HT-1080, 48 h, 2 days
Protocol: Assay plates were prepared by seeding either BJ-derived cell lines or HT-1080 cells at 1,500 cells per well concentration in 36 μL growth medium. Cells in the assay plates were treated with compounds by transferring 4 μL volume from the compound plate. The final concentration of compound was typically 30 μM to 0.9 nM in this 16-point, 2-fold dilution series. Assay plates were returned to the culture incubator and maintained for 2 days before adding alamar blue. […] Plates were incubated further for 16 hours to allow reduction of alamar blue, which results in the generation of red fluorescence. The fluorescence intensity was determined using a Victor 3 plate reader (Perkin Elmer) with a 535 nm excitation filter and a 590 nm emission filter.
Percent growth inhibition (% GI) was calculated from the following formula using the alamar blue fluorescence intensity values. % GI=100*(1−(X−N)/(P−N)) X, cells treated with lethal compound; N, no cells—growth media only; P, no lethal compound—cells only.
The concentration-dependent curves were generated using Prism software. Percent growth inhibition, measured using alamar blue is shown. Error bars indicate one standard deviation of triplicate data.
The results are shown in FIG. 17 and in Table 7 below.

system xc− = target: T1, system xc− (Homo sapiens, UniProt Q9UPY5); assay: Glutamate release assay (system xc− activity); conditions: read-out: IC50 glutamate release; CCF-STTG1 human astrocytoma cells, 2 hour incubation
T1 sequence (Q9UPY5 1-501): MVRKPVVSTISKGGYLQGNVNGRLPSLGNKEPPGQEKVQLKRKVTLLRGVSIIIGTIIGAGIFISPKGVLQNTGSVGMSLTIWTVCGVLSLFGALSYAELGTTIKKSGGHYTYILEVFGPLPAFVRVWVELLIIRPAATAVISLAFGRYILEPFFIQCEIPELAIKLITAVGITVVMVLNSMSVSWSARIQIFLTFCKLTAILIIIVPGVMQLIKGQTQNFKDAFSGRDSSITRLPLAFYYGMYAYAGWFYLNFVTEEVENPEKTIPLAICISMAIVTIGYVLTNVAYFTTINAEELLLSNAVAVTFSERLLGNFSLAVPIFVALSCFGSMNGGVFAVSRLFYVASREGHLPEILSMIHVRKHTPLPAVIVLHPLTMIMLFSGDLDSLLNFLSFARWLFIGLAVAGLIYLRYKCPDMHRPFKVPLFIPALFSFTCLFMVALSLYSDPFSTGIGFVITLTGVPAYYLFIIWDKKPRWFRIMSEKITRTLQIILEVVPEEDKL
T1 sequence (P08195 1-529 partner): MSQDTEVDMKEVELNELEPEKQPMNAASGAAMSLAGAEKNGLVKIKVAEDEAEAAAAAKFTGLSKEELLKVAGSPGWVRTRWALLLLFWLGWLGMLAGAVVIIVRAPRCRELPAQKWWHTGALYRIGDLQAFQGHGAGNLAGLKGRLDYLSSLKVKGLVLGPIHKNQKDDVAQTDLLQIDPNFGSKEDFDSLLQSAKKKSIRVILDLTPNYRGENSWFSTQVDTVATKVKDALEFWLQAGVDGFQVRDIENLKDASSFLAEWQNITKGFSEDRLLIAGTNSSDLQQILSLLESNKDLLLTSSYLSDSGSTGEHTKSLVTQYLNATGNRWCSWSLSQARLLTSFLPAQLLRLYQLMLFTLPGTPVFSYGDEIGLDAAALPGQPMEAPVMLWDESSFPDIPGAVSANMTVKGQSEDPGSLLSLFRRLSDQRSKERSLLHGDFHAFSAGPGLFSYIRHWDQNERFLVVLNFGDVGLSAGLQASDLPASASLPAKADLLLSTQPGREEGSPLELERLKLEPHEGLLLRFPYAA

[2] = test system: BJeH, BJeHLT, BJeLR, and DRD; assay: RSL testing in 4 BJ-derived cell lines; type: cell-based, human
[3] = test system: siGPX4-induced cell death; assay: Suppression of siGPX4-induced cell death by ferroptosis inhibitors; type: cell-based; conditions: 10 μM U0126, 100 μM Vit. E, 100 μM DFOM, 50 μM ZIL
[4] = test system: HT-1080 cells, U-2 OS cells; assay: Cell viability (alamar blue, 24 hours) with modulators of erastin lethality; type: cell-based, human; conditions: HT-1080 or U-2 OS cells
[5] = test system: xenograft tumors generated from BJeLR cells; type: in vivo; conditions: for overt toxicity (body weight): mouse, in vivo
Description: . To test our hypothesis that IKE represented a candidate of choice for in vivo studies, we treated xenograft tumors generated from BJeLR cells in nude mice and with IKE compared to vehicle or doxorubicin treatments (as a positive growth suppression control). […] To confirm that growth suppression caused by IKE was due to ferroptotic cell death, we looked at levels of expression of PTGS2, a gene expression marker of ferroptosis. […]

[6] = Pharmacokinetic profile in mice; set-up: species or system mice (C57BL/6); conditions: in vivo
HT-1080 cells = assay: Cell death rescue by ALOX inhibitors and COX inhibitor; type: cell-based, human; conditions: inhibitor concentrations of Table 2
cellular GSH = assay: GSH depletion assay; type: cell-based; conditions: BJeLR cells, lethal RSL3 dose
lipid peroxides = assay: Lipid peroxide detection using BODIPY-C11; type: cell-based; conditions: BJeLR and other BJ-derived cells
GFP-ALOX5 = GFP-ALOX5 translocation assay; type: cell-based, human

Compound: CC(C)Oc1ccc(C=O)cc1-n1c(CN2CCN(C(=O)COc3ccc(Cl)cc3)CC2)nc2ccccc2c1=O [AE, aldehyde erastin]
half-life at 0.5 μM [1]: < 5 min
pIC50 (BJeLR): 8.10
pIC50 (HT1080): 7.41
pIC50 (system xc−): 7.22

metabolic stability (in words) [1]: medium to poor metabolic stability
half-life at 0.5 μM [1]: 4.2 min
pIC50 (system xc−): 8.00
Compound: C=CCN1CCN(CC(=O)c2ccc(OC(C)C)c(-n3c(CN4CCN(C(=O)COc5ccc(Cl)cc5)CC4)nc4ccccc4c3=O)c2)CC1 [APKE]
Selectivity (IC50BJeH/IC50BJeLR) (BJeLR): 1.5
pIC50 (BJeLR): 6.71

Compound: CCCCS(=N)(=O)CCC(N)C(=O)O (stereo not shown) [BSO, Buthioninesulfoximine]
RSL phenotype (selective lethality in oncogenic-RAS cells) [2]: RSL phenotype was observed; also recorded: consistently showed an RSL phenotype

Compound: N#CC(=C(/N)Sc1ccccc1N)/C(C#N)=C(\N)Sc1ccccc1N [Compound U0126, U0126]
rescue of siGPX4-induced cell death [3]: rescued

metabolic stability (in words) [1]: medium to poor metabolic stability
half-life at 0.5 μM [1]: 4.7 min
pIC50 (HT1080): 7.21
pIC50 (system xc−): 7.40
Compound: CC(C)Oc1ccc(C(=O)CF)cc1-n1c(CN2CCN(C(=O)COc3ccc(Cl)cc3)CC2)nc2ccccc2c1=O [FKE]

Compound: N[C@@H](CCC(=O)N[C@@H](CS)C(=O)NCC(=O)O)C(=O)O [GSH, reduced glutathione]
effect on erastin-induced cell death [4]: rescued cells from erastin lethality

Compound: CC(C)Oc1ccc(C(=O)Cn2ccnc2)cc1-n1c(CN2CCN(C(=O)COc3ccc(Cl)cc3)CC2)nc2ccccc2c1=O [IKE, imidazole ketone erastin]
metabolic stability (in words) [1]: exceptionally high metabolic stability
tumor growth, IKE compared to doxorubicin treatment ([5]; 8 day study): no significant difference
overt toxicity (body weight) [5]: No overt toxicity was observed
expression of PTGS2 relative to doxorubicin or vehicle-treated mice ([5]; qPCR, xenograft): three-fold average increase
tumor size compared to vehicle-treated ([5]; seven once-daily doses of IKE 50 mg/kg I.P., 8 day study): about one third of the size of vehicle-treated tumors
Selectivity (IC50BJeH/IC50BJeLR) (BJeLR): 42
pIC50 (BJeLR): 8.52
pIC50 (HT1080): 6.50
pIC50 (system xc−): 7.52
bioavailability ([6]; mouse, 5 mg/kg IKE, single IV bolus or single oral gavage, C57BL/6 mice): 2.49%

Compound: COc1ccc2c(c1)c(CC(=O)O)c(C)n2C(=O)c1ccc(Cl)cc1 [Indomethacin]
suppression of erastin-induced cell death (HT-1080 cells): only minimally effective in suppressing erastin lethality

Compound: CC(=O)c1ccc(OC(C)C)c(-n2c(CN3CCN(C(=O)COc4ccc(Cl)cc4)CC3)nc3ccccc3c2=O)c1 [KE]
half-life at 0.5 μM [1]: 3.8 min
pIC50 (HT1080): 7.23
pIC50 (system xc−): 7.52

metabolic stability (in words) [1]: medium to poor metabolic stability
half-life at 0.5 μM [1]: 23.4 min
pIC50 (system xc−): 8.00
Compound: CC(C)Oc1ccc(C(=O)CN2CCOCC2)cc1-n1c(CN2CCN(C(=O)COc3ccc(Cl)cc3)CC2)nc2ccccc2c1=O [MKE]
Selectivity (IC50BJeH/IC50BJeLR) (BJeLR): 5
pIC50 (BJeLR): 6.37

pIC50 (system xc−): 6.52
Compound: CC(C)Oc1ccc(C(=O)CN2CCN(C)CC2)cc1-n1c(CN2CCN(C(=O)COc3ccc(Cl)cc3)CC2)nc2ccccc2c1=O [MPKE]
Selectivity (IC50BJeH/IC50BJeLR) (BJeLR): 1.9
pIC50 (BJeLR): 6.32

Compound: CC(=O)N[C@@H](CS)C(=O)O [N-acetyl-cysteine]
effect on erastin-induced cell death [4]: rescued cells from erastin lethality

metabolic stability (in words) [1]: exceptionally high metabolic stability
half-life at 0.5 μM [1]: > 90 min
pIC50 (HT1080): 6.26
pIC50 (system xc−): 7.00
bioavailability ([6]; C57BL/6, mouse, oral, 20 mg/kg): 0.75%
Compound: CC(C)Oc1ccc(C(=O)CN2CCNCC2)cc1-n1c(CN2CCN(C(=O)COc3ccc(Cl)cc3)CC2)nc2ccccc2c1=O [PKE, piperazine ketone erastin]

metabolic stability (in words) [1]: medium to poor metabolic stability
half-life at 0.5 μM [1]: 3.4 min
pIC50 (system xc−): 8.40
Compound: COc1ccc(CN2CCN(CC(=O)c3ccc(OC(C)C)c(-n4c(CN5CCN(C(=O)COc6ccc(Cl)cc6)CC5)nc5ccccc5c4=O)c3)CC2)cc1 [PMB-PKE]
Selectivity (IC50BJeH/IC50BJeLR) (BJeLR): 13
pIC50 (BJeLR): 7.89

Compound: COC(=O)c1ccc([C@@H]2c3[nH]c4ccccc4c3C[C@@H](C(=O)OC)N2C(=O)CCl)cc1 [RSL3]
cellular GSH level (cellular GSH): remained unaffected
RSL phenotype (selective lethality in oncogenic-RAS cells) [2]: exhibited selective lethality in BJeLR cells
generation of lipid peroxides (BODIPY-C11) (lipid peroxides): generation of lipid peroxides
translocation of GFP-ALOX5 to the nuclear membrane (GFP-ALOX5): caused GFP-ALOX5 translocation to the nuclear membrane in BJeLR cells

pIC50 (HT1080): 6.75
pIC50 (system xc−): 7.70
Compound: CC(C)Oc1ccc(C(=O)C(F)(F)F)cc1-n1c(CN2CCN(C(=O)COc3ccc(Cl)cc3)CC2)nc2ccccc2c1=O [TFKE]

Compound: CC(c1cc2ccccc2s1)N(O)C(N)=O (stereo not shown) [ZIL, Zileuton]
rescue of siGPX4-induced cell death [3]: rescued

Compound: C[C@H]1O[C@@H](O[C@H]2[C@@H](O)C[C@H](O[C@H]3[C@@H](O)C[C@H](O[C@H]4CC[C@@]5(C)[C@H](CC[C@@H]6[C@@H]5C[C@@H](O)[C@]5(C)[C@@H](C7=CC(=O)OC7)CC[C@]65O)C4)O[C@@H]3C)O[C@@H]2C)C[C@H](O)[C@@H]1O [digoxin, Digoxin]
translocation of GFP-ALOX5 to the nuclear membrane (GFP-ALOX5): induced GFP-ALOX5 translocation

Compound: COc1cccc2c1C(=O)c1c(O)c3c(c(O)c1C2=O)C[C@@](O)(C(=O)CO)C[C@@H]3O[C@H]1C[C@H](N)[C@H](O)[C@H](C)O1 [doxorubicin, reference compound]
overt toxicity (body weight) [5]: No overt toxicity was observed
increase in expression of CDKN1A relative to IKE-treated or vehicle-treated mice ([5]; qPCR, xenograft): 5 fold

Compound: C[C@H](CCC(=O)O)C[C@H](C)C[C@H](C)C(=O)/C=C(\O)[C@H](C)C[C@H](C)C/C=C/[C@@H](C)[C@@H](O)[C@@H](C)[C@@H](O)C[C@@H]1CC[C@@](C)([C@H]2CC[C@@](C)([C@@H](C)O)O2)O1 [ionomycin]
translocation of GFP-ALOX5 to the nuclear membrane (GFP-ALOX5): induced localization of GFP-ALOX5 to the nuclear membrane in all BJ-derived cell lines

Compound: CN[C@@H]1C[C@H]2O[C@@](C)([C@@H]1OC)n1c3ccccc3c3c4c(c5c6ccccc6n2c5c31)C(=O)NC4 [staurosporine, Staurosporine]
translocation of GFP-ALOX5 to the nuclear membrane (GFP-ALOX5): did not

Compound: Vitamin E [Vit. E]
rescue of siGPX4-induced cell death [3]: rescued

Compound: lysophosphatidyl choline [lyso-PC]
RSL phenotype (selective lethality in oncogenic-RAS cells) [2]: did not show differential cytotoxicity
effect on erastin-induced cell death [4]: modestly sensitized cells to erastin-induced cell death
